The target in the first test is T1, PAF receptor (Oryctolagus cuniculus, UniProt G1TEI7).
T1 construct: platelet membranes were prepared by centrifugation and washing; tissue Pel-Freez (Rogers, AR); host or cells: rabbit blood platelets (membranes prepared from citrated whole rabbit blood)
T1 sequence (G1TEI7 1-342): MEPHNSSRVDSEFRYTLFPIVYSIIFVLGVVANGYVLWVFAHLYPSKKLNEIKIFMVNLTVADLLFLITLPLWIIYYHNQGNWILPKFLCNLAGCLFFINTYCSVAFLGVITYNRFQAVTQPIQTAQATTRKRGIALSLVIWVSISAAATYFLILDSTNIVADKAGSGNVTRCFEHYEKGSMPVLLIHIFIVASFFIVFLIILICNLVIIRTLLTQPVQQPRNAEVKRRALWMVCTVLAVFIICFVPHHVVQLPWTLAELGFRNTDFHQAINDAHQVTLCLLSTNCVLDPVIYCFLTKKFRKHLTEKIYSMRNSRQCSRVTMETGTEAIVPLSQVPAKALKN
Description: PAF receptor binding assay: inhibition of specific [^3 H]C18 -PAF binding to rabbit platelet membranes.
Settings: not given
In turn, `Cc1nc2ccncc2n1Cc1ccc(C(=O)c2cn(C(=O)N(C)C)c3cc(-c4ccc(F)cc4)ccc23)cc1` [Example 7, 1-N,N-Dimethylcarbamoyl-6-(4-fluorophenyl)-3-{4-[(3H-2-methylimidazo[4.5-c]pyrid-3-yl)methyl]benzoyl}indole] yielded a Ki of 700 nM.

In turn, `COC(=O)c1cccc2c1c(C(=O)c1ccc(Cn3c(C)nc4cnccc43)c(F)c1)cn2C(=O)N(C)C` [Example 96, 1-N,N-Dimethylcarbamoyl-4-methoxycarbonyl-3-{3-fluoro-4-[(1H-2-methylimidazo[4,5-c]pyrid-1-yl)methyl]benzoyl}indole] gave an inhibition constant Ki of 7.7 nM. `COC(=O)c1cccc2c1c(C(=O)c1ccc(C(C)n3c(C)nc4cnccc43)cc1)cn2C(=O)N(C)C` (stereo not drawn) [Example 156, 1-N,N-Dimethylcarbamoyl-4-methoxycarbonyl-3-{4-[1-(1H-2-methylimidazo[4.5-c]pyrid-1-yl)eth-1-yl]benzoyl}indole] yielded an inhibition constant (Ki) of 19 nM.

Take `Cc1nc2cnccc2n1Cc1ccc(C(=O)c2cn(C(=O)N(C)C)c3cccc(C(=O)N(C)C)c23)cc1` [Example 112, 1,4-di-N,N-Dimethylcarbamoyl-3-{4-[(1H-2-methylimidazo[4.5-c]pyrid-1-yl)methyl]benzoyl}indole]: the Ki came to 150 nM. Compound `CN(C)C(=O)n1cc(C(=O)c2ccc(Cn3c(-c4ccccc4)nc4cnccc43)cc2)c2ccccc21` [Example 32] showed an inhibition at 1 µM of 10%. The compound `Cc1nc2cnccc2n1Cc1cccc(C(=O)c2cn(C(=O)N(C)C)c3cc(-c4ccc(F)cc4)ccc23)c1` [Example 12, 1-N,N-Dimethylcarbamoyl-6-(4-fluorophenyl)-3-{3-[(1H-2-methylimidazo[4.5-c]pyrid-1-yl)methyl]benzoyl}indole] came in with a Ki of 140 nM. `COC(=O)c1cccc2c1c(C(=O)c1ccc(Cn3c(C)nc4cc(Cl)c(Cl)cc43)cc1)cn2C(=O)N(C)C` [Example 167, 1-N,N-Dimethylcarbamoyl-4-methoxycarbonyl-3-{4-[(1H-2-methyl-5,6-dichlorobenzimidazolyl)methyl]benzoyl}indole] had a Ki of 450 nM.

Still in this test, the particulars now being: Table 1; rabbit platelet membranes, 0.6 nM [^3 H]C18 -PAF, 60 minutes at room temperature; Ki by Cheng and Prusoff; read-out: Ki.
For `COC(=O)c1cccc2c1c(S(=O)(=O)c1ccc(Cn3c(C)nc4cnccc43)cc1)cn2C(=O)N(C)C` [Example 141, 1-N,N-Dimethylcarbamoyl-4-methoxycarbonyl-3-{4-[(1H-2-methylimidazo[4.5-c]pyrid-1-yl)methyl]phenylsulfonyl}indole], the Ki came out at 20 nM. For the compound `Cc1nc2cnccc2n1CCCN(C)CC(=O)c1cn(C(=O)N(C)C)c2cc(-c3ccc(F)cc3)ccc12` [Example 95, 6-(4-Fluorophenyl)-3-{N-[3-(1H-2-methylimidazo[4.5-c]pyrid-1-yl)propyl]sarcosyl}indole-1-carboxylic acid dimethyl amide], the Ki was found to be 130 nM.
